Assay results reported in patent US5559153A, “Urea-substituted benzoylguanidines, process for their preparation, their use as pharmaceutical or diagnostic, and pharmaceutical containing them” (priority 1993, dated 1996).
Where a name gives a salt, the structure may show the parent alone.

Tests used:
[1] = target: T1, Na^+ /H^+ exchanger of rabbit erythrocytes (Oryctolagus cuniculus, UniProt P23791); assay: Inhibition of the Na^+ /H^+ exchanger of rabbit erythrocytes (Na^+ influx by flame photometry); assay type: cell-based, rabbit (New Zealand White); settings: pH 7.4, 37° C., Na^+ influx in hyperosmolar salt/sucrose medium
T1 construct: Na^+ influx into the erythrocytes via Na^+ /H^+ exchange; endogenous in cells; host or cells: intact erythrocytes from blood of cholesterol-fed New Zealand White rabbits (Ivanovas)
T1 sequence (P23791 whole entry): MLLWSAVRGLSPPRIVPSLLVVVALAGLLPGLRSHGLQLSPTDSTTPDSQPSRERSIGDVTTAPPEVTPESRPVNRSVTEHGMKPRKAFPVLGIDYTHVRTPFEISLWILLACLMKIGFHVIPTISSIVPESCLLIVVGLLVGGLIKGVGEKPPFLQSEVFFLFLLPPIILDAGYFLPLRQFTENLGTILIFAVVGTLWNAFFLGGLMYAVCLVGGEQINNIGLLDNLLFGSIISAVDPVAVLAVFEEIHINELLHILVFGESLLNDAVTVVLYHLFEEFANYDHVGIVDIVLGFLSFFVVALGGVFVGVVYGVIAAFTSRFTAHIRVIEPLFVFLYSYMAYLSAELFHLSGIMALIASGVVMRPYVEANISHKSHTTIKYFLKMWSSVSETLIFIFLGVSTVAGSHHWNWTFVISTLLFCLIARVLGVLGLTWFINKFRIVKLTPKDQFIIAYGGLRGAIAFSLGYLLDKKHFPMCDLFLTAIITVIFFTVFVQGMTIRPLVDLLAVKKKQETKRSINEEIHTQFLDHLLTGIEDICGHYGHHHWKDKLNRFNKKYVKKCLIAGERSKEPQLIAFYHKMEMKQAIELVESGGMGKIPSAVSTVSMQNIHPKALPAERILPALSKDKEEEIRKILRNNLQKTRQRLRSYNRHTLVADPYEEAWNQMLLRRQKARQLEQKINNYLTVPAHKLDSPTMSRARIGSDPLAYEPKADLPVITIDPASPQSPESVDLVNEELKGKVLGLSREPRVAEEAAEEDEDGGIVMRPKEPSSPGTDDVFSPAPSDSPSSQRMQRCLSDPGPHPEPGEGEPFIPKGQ
Text: Inhibition of the Na^+ /H^+ exchanger of rabbit erythrocytes:
New Zealand White rabbits (Ivanovas) received a standard diet containing 2% cholesterol for six weeks in order to activate the Na^+ /H^+ exchange and thus to be able to determine, by flame photometry, the Na^+ influx into the erythrocytes via Na^+ /H^+ exchange. The blood was removed from the aural arteries and rendered incoagulable using 25 IE/ml of potassium heparin. A part of each sample was used for the duplicate determination of the hematocrit by means of centrifugation. Aliquots of in each case 100 μl were used for measuring the initial Na^+ content of the erythrocytes.
In order to determine the amiloride-sensitive sodium influx, 100 μl of each blood sample were in each case incubated, at pH 7.4 and 37° C., in 5 ml of a hyperosmolar salt/sucrose medium (mmol/l: 140 NaCl, 3 KCl, 150 sucrose, 0.1 ouabain, 20 tris(hydroxymethyl)aminomethane). The erythrocytes were then washed three times with ice-cold MgCl2 /ouabain solution (mmol/l: 112 MgCl2, 0.1 ouabain) and hemolyzed in 2.0 ml of distilled water. The intracellular sodium content was determined by flame photometry.
The net influx of Na^+ was calculated from the difference between the initial sodium values and the sodium content of the erythrocytes following incubation. The amiloride-inhibitable sodium influx resulted from the difference in the sodium content of the erythrocytes following incubation with and without amiloride 3×10^-4 mol/l. This method was also employed in the case of the compounds according to the invention.

[2] = tested on: artificially induced ventricular fibrillation, rat hearts; settings: isolated rat hearts; cited from earlier work
cardiac arrhythmias = settings: in vivo; cited from earlier work

Q: With `N=C(N)NC(=O)c1cc(Cl)ccc1NC(=O)N1CCCCC1` [Example 1, 5-Chloro-2-(piperidinocarbonylamino)benzoylguanidine] as the molecule, how does the IC50 [1] read?
A: 1 to 2 µM

Q: Which IC50 [1] does the source give for `CCCNC(=O)Nc1c(Cl)cc(C(=O)NC(=N)N)cc1Cl` [Example 20, 3,5-Dichloro-4-(n-propylaminocarbonylamino)benzoylguanidine hydrochloride] here?
A: 2 to 5 µM

Q: With `CN(C)C(=O)Nc1ccc(Cl)cc1C(=O)NC(=N)N` [Example 3, 5-Chloro-2-(dimethylaminocarbonylamino)benzoylguanidine hydrochloride] as the molecule, how does the IC50 [1] read?
A: 3 µM

Q: With `N=C(N)NC(=O)c1cc(Cl)c(NC(=O)Nc2ccccc2)c(Cl)c1` [Example 21, 3,5-Dichloro-4-(phenylaminocarbonylamino)benzoylguanidine hydrochloride] as the molecule, how does the IC50 [1] read?
A: 1 µM

Q: Which IC50 [1] does the source give for `CCNC(=S)Nc1cc(C(=O)NC(=N)N)ccc1Cl` [Example 17, 4-Chloro-3-(ethylaminothiocarbonylamino)benzoylguanidine hydrochloride] here?
A: 3 to 5 µM

Q: With `CC(C)(C)NC(=O)Nc1ccc(Cl)cc1C(=O)NC(=N)N` [Example 7, 5-Chloro-2-(tert-butylaminocarbonylamino)benzoylguanidine hydrochloride] as the molecule, how does the IC50 [1] read?
A: 3 to 8 µM

Q: With `CCN(c1nc(N)c(C(=O)NC(=N)N)nc1Cl)C(C)C` [ethylisopropylamiloride] as the molecule, how does the “suppression of artificially induced ventricular fibrillation” value [2] read?
A: even more potent than amiloride

Q: With `N=C(N)NC(=O)c1nc(Cl)c(N)nc1N` [amiloride] as the molecule, how does the antiarrhythmic effect (cardiac arrhythmias) read?
A: only weakly expressed

Q: What about the “side effects (hypotensive and saluretic)” value (cardiac arrhythmias) of the same molecule?
A: hypotensive and saluretic effects

Q: And the “suppression of artificially induced ventricular fibrillation” value [2]?
A: completely suppress artificially induced ventricular fibrillation
